IC50 data for five molecules are collected here from patent publication US20240101576A1, “HETEROCYCLIC INHIBITORS OF EGFR AND/OR HER2, FOR USE IN THE TREATMENT OF CANCER” (Scorpion Therapeutics, Inc., priority 2020, published 2024).

SMILES strings stand for the structures. pIC50: −log10 of the molar value.

What all share (format): cell-based
Assay [1] has as its target T1, EGFR L858R (Ba/F3 cells) (Homo sapiens, UniProt P00533, L858R).
T1 construct: expressed in transfected cells; host or cells: Ba/F3 (murine pro-B cells), retroviral transduction, puromycin selection, IL3-independent pool
Description: Inhibitor activity on EGFR-dependent cell growth (CellTiter-Glo, 72 h), Ba/F3 EGFR L858R. Conditions: read-out: BaF3 L858R IC50. The gist of the method:
(§1)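 For each mutant line, growth depends on EGFR signalling in the absence of IL3. Density per well: 400 for L858R, 600 for the C797S double mutant, 800 for exon 19del and FQEA. Ten threefold dilutions were applied for 72 h. %Inhibition = 100×(DMSO − sample)/(DMSO − medium blank).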
(In general: In ATP-based viability assays light output follows the ATP content of the culture.)

The target of assay [2] is T2, EGFR exon 19del (Ba/F3 cells) (Homo sapiens, UniProt P00533). Description: Inhibitor activity on EGFR-dependent cell growth (CellTiter-Glo, 72 h), Ba/F3 EGFR exon 19del. Conditions: Ba/F3 EGFR exon 19del cell growth, read-out: BaF3 Del19 IC50. The gist of the method: as §1
Assay [3] has as its target T3, EGFR L858R/C797S (Ba/F3 cells) (Homo sapiens, UniProt P00533, C797S/L858R).
T3 construct: expressed in transfected cells; host or cells: Ba/F3 (murine pro-B cells), retroviral transduction, puromycin selection, IL3-independent pool
The assay can be described thus: Inhibitor activity on EGFR-dependent cell growth (CellTiter-Glo, 72 h), Ba/F3 EGFR L858R/C797S. Conditions: read-out: BaF3 L858R/C797S IC50. The gist of the method:
as §1

Assay [4] concerns the target T1, EGFR L858R (Ba/F3 cells). Description: Inhibitor activity on EGFR phosphorylation (pEGFR AlphaLISA, 2 h), Ba/F3 EGFR L858R. Summed up:
(§2)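 Cellular EGFR autophosphorylation assay. IL3-independent Ba/F3 transductants or CUTO14 cells are incubated with serially diluted compound (3-fold, 10 points) for 2 h, then lysed and pEGFR quantified by AlphaLISA.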
On the technique in general: Alpha assays give light when donor and acceptor beads are brought close together.

Assay [5] has as its target T2, EGFR exon 19del (Ba/F3 cells). Description: Inhibitor activity on EGFR phosphorylation (pEGFR AlphaLISA, 2 h), Ba/F3 EGFR exon 19del. Conditions: read-out: Del19 IC50 (pEGFR). Summed up:
as §2

The target of assay [6] is T3, EGFR L858R/C797S (Ba/F3 cells). Description: Inhibitor activity on EGFR phosphorylation (pEGFR AlphaLISA, 2 h), Ba/F3 EGFR L858R/C797S. The gist of the method:
as §2

The next assay addresses T4, EGFR WT (Ba/F3 cells) (Homo sapiens, UniProt P00533).
T4 construct: expressed in transfected cells; host or cells: Ba/F3 (murine pro-B cells), retroviral transduction, puromycin selection, maintained with EGF
Description: Inhibitor activity on EGFR-dependent cell growth (CellTiter-Glo, 72 h), Ba/F3 EGFR WT. Conditions: read-out: BaF3 WT IC50. The gist of the method: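 This growth assay used Ba/F3 cells that depend on wild-type EGFR and are kept in EGF without IL3. Compounds were made up as 10 mM DMSO stocks and diluted 3-fold over 10 points. 120 nL went onto 600 cells/well. After 72 hours, 40 μL CellTiter-Glo was added and luminescence read on EnVision after 30 min.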

Assay [7] deals with T5, EGFR exon 20 NPG Ins D770_N771 (Ba/F3 cells) (Homo sapiens, UniProt P00533, INS770NPG).
T5 construct: expressed in transfected cells; host or cells: Ba/F3 (murine pro-B cells), retroviral transduction, puromycin selection, IL3-independent pool
Description: Inhibitor activity on EGFR-dependent cell growth (CellTiter-Glo, 72 h), Ba/F3 EGFR exon 20 NPG Ins. Conditions: read-out: BaF3 NPG IC50. Summed up: (§3)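 IC50s derive from a sigmoidal dose–response fit of CellTiter-Glo signal. The signal was normalised between […]-treated cells and cell-free medium. Ba/F3 mutant-EGFR cells, seeded at 400–800/well depending on the line, had 72 h of exposure to a 10-point, 3-fold compound series.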

In assay [8] the target is T6, EGFR exon 20 ASV Ins V769_D770 (Ba/F3 cells) (Homo sapiens, UniProt P00533, INS769ASV).
T6 construct: expressed in transfected cells; host or cells: Ba/F3 (murine pro-B cells), retroviral transduction, puromycin selection, IL3-independent pool
Description: Inhibitor activity on EGFR-dependent cell growth (CellTiter-Glo, 72 h), Ba/F3 EGFR exon 20 ASV Ins. Conditions: read-out: BaF3 ASV IC50. Summed up:
as §3

Assay [9] has as its target T7, EGFR exon 20 SVD Ins D770_N771 (Ba/F3 cells) (Homo sapiens, UniProt P00533, INS770SVD).
T7 construct: expressed in transfected cells; host or cells: Ba/F3 (murine pro-B cells), retroviral transduction, puromycin selection, IL3-independent pool
Description: Inhibitor activity on EGFR-dependent cell growth (CellTiter-Glo, 72 h), Ba/F3 EGFR exon 20 SVD Ins. Conditions: read-out: BaF3 SVD IC50. The gist of the method: as §3

Assay [10] addresses T8, EGFR exon 20 FQEA Ins A763_V764 (Ba/F3 cells) (Homo sapiens, UniProt P00533, INS763FQEA).
T8 construct: expressed in transfected cells; host or cells: Ba/F3 (murine pro-B cells), retroviral transduction, puromycin selection, IL3-independent pool
The assay can be described thus: Inhibitor activity on EGFR-dependent cell growth (CellTiter-Glo, 72 h), Ba/F3 EGFR exon 20 FQEA Ins. Conditions: read-out: BaF3 FQEA IC50. Summed up: as §1

In assay [11] the target is T5, EGFR exon 20 NPG Ins D770_N771 (Ba/F3 cells). The assay can be described thus: Inhibitor activity on EGFR phosphorylation (pEGFR AlphaLISA, 2 h), Ba/F3 EGFR exon 20 NPG Ins. Summed up: as §2
The target of assay [12] is T6, EGFR exon 20 ASV Ins V769_D770 (Ba/F3 cells). The assay can be described thus: Inhibitor activity on EGFR phosphorylation (pEGFR AlphaLISA, 2 h), Ba/F3 EGFR exon 20 ASV Ins. Conditions: EGFR phosphorylation, AlphaLISA, 2 hours; read-out: ASV IC50 (pEGFR). The gist of the method: as §2
The target of assay [13] is T7, EGFR exon 20 SVD Ins D770_N771 (Ba/F3 cells). The assay can be described thus: Inhibitor activity on EGFR phosphorylation (pEGFR AlphaLISA, 2 h), Ba/F3 EGFR exon 20 SVD Ins. The text has this: Example B. Inhibitor Activity on EGFR phosphorylation (pEGFR)
EGFR mutant Ba/F3 cells were generated by transduction with retrovirus containing vectors expressing EGFR L858R, EGFR exon 19del, EGFR L858R/C797S, EGFR exon 20 NPG Ins D770_N771, EGFR exon 20 ASV Ins V769_D770, or EGFR exon 20 SVD Ins D770_N771 genes along with a puromycin selection marker. Transduced cells are selected with puromycin for 7 days and are then be transferred into culture media without Interleukin 3 (IL3). Surviving cells are confirmed to express EGFR by Western blot and maintained as a pool. CUTO14 cells were obtained from Dr. Robert C. Doebele at the University of Colorado. The IC50 date are included in Table 6 and Table 7.
1.1 Cells are harvested from flask into cell culture medium and the cell number counted.
1.2 Cells are diluted with culture medium to the desired density and 40 μL of cell suspension is added into each well of 384-well cell culture plate and the seeding density is 50K cells/well (Ba/F3) or 12.5K cells/well (CUTO14).
2 Compound Preparation and Treatment
2.1 Test compounds are dissolved to 10 mM in a DMSO stock solution. 45 μL of stock solution is transferred to a 384 polypropylene plate (pp-plate). Perform 3-fold, 10-point dilution via transferring 15 μL compound into 30 μL DMSO using a TECAN (EVO200) liquid handler.
2.2 Spin plates at room temperature at 1,000 RPM for 1 minute.
2.3 Transfer 5 nL of diluted compound from compound source plate into the cell plate.
2.4 After compound treatment for 2 hours, perform pEGFR detection by AlphaLISA for compound treatment plates as described in “Detection” section.
3 Detection by pEGFR AlphaLISA (Perkin-Elmer)
3.1 Plates are removed from incubators and equilibrated at room temperature for 10 minutes, and media was removed
3.2 10 μL of lysis buffer is added and plates shaken at 600 rpm for 1 hr.
3.3 Prepare acceptor mix just before use and dispense 5 μL of acceptor mix to all the wells. Shake 350 rpm for Ihr in the dark
3.4 Prepare donor mix under low light conditions prior to use. Dispense 5 μL of donor mix to all the wells. Mix well on the shaker, seal and wrap in aluminum foil and incubate 1.5 hrs at room temperature in the dark
3.5 Transfer 18.5 μL mixture to OptiPlate 384, and read using an Envision. The IC50 date were included in Table 6 and Table 7.

The target in another assay is EGFR (CUTO14 cells) (Homo sapiens, UniProt P00533). The assay can be described thus: Inhibitor activity on EGFR phosphorylation (pEGFR AlphaLISA, 2 h), CUTO14 cells. The gist of the method:
as §2

T1 sequence (P00533 25-1210 L858R): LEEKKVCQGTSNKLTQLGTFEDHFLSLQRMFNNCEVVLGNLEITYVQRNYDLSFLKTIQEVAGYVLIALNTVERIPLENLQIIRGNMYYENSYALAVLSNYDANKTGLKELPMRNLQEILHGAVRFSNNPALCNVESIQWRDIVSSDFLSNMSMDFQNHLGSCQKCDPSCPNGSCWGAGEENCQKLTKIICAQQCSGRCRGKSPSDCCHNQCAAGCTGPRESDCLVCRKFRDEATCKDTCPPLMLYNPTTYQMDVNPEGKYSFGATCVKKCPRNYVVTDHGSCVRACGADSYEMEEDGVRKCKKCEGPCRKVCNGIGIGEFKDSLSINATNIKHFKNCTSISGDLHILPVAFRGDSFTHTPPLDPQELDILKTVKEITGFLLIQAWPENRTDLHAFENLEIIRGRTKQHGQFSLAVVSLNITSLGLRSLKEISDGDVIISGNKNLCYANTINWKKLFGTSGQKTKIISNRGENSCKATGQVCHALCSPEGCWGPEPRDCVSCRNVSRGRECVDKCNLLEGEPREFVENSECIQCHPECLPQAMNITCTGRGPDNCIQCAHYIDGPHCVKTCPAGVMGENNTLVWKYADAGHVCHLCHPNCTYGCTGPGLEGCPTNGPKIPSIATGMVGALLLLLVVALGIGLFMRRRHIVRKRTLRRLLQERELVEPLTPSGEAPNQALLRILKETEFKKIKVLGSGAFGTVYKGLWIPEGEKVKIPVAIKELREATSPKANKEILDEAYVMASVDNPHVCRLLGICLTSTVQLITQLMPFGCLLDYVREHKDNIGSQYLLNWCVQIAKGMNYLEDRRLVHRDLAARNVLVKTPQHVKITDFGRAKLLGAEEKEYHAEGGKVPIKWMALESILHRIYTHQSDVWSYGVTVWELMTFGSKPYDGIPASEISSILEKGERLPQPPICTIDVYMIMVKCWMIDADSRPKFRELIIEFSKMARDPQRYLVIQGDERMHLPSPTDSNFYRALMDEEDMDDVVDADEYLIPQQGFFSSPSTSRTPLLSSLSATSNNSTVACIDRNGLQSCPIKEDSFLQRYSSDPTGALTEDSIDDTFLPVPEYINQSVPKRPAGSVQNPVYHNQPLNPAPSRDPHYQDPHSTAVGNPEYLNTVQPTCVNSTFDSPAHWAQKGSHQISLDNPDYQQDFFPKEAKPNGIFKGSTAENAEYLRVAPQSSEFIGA
T8 sequence (P00533 with tags, fused parts or gaps INS763FQEA): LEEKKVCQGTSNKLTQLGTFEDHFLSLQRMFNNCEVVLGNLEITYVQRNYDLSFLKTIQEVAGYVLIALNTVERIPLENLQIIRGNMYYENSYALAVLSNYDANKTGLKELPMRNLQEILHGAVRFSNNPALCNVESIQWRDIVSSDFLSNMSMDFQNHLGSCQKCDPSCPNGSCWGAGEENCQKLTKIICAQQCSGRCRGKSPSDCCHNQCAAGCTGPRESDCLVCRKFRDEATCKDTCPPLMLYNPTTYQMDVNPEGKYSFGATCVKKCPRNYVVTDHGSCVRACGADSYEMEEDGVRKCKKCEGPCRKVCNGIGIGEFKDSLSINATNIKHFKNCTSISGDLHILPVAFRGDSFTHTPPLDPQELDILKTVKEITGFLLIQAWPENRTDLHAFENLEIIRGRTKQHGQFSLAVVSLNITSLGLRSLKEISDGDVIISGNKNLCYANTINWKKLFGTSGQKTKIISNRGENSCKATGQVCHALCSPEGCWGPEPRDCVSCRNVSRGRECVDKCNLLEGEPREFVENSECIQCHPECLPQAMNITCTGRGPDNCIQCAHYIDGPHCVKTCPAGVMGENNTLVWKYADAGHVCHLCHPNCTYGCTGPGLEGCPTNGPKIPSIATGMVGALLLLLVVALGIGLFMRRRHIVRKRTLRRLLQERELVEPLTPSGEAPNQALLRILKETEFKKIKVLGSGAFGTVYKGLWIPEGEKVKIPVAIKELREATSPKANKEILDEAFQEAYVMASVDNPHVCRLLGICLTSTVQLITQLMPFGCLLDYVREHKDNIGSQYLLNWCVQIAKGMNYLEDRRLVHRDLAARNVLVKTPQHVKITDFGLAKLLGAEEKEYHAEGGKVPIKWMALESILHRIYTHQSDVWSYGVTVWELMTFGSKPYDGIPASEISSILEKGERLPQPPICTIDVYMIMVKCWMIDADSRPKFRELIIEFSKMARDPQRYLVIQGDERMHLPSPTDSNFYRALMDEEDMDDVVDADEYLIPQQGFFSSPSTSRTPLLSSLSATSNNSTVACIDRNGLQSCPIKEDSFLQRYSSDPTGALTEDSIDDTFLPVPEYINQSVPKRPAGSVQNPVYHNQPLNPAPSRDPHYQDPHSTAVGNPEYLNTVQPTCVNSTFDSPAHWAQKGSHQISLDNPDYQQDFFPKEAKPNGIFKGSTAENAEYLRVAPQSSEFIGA
T7 sequence (P00533 with tags, fused parts or gaps INS770SVD): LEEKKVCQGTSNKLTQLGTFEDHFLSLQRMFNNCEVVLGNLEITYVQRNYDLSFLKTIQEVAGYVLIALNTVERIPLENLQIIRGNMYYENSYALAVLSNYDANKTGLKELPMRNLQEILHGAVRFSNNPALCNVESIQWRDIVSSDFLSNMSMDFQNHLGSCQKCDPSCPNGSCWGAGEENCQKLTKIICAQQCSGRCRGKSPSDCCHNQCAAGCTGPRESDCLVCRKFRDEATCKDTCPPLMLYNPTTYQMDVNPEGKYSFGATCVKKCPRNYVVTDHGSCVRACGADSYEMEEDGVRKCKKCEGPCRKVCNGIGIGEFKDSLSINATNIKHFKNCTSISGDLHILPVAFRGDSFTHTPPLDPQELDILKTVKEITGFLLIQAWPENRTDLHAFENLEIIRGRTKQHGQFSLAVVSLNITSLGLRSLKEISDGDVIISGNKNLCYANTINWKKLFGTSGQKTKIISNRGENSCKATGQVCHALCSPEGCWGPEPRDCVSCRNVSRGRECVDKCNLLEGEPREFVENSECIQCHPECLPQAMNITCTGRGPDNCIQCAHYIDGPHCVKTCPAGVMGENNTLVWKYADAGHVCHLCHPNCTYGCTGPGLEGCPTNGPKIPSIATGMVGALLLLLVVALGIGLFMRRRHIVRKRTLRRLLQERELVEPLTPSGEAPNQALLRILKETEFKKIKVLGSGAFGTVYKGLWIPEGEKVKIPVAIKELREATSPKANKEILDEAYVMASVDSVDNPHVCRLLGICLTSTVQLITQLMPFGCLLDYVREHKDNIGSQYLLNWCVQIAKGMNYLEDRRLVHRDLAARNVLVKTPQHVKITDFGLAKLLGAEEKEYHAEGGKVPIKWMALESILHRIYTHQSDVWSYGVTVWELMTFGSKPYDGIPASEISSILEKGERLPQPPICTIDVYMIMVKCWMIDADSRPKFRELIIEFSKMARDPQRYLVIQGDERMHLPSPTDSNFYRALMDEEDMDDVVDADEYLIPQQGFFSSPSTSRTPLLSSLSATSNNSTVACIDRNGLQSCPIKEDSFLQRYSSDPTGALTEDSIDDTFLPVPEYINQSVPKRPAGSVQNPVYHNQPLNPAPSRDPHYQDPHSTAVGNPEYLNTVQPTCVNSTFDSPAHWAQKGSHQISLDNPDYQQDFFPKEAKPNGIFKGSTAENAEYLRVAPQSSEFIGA
T6 sequence (P00533 with tags, fused parts or gaps INS769ASV): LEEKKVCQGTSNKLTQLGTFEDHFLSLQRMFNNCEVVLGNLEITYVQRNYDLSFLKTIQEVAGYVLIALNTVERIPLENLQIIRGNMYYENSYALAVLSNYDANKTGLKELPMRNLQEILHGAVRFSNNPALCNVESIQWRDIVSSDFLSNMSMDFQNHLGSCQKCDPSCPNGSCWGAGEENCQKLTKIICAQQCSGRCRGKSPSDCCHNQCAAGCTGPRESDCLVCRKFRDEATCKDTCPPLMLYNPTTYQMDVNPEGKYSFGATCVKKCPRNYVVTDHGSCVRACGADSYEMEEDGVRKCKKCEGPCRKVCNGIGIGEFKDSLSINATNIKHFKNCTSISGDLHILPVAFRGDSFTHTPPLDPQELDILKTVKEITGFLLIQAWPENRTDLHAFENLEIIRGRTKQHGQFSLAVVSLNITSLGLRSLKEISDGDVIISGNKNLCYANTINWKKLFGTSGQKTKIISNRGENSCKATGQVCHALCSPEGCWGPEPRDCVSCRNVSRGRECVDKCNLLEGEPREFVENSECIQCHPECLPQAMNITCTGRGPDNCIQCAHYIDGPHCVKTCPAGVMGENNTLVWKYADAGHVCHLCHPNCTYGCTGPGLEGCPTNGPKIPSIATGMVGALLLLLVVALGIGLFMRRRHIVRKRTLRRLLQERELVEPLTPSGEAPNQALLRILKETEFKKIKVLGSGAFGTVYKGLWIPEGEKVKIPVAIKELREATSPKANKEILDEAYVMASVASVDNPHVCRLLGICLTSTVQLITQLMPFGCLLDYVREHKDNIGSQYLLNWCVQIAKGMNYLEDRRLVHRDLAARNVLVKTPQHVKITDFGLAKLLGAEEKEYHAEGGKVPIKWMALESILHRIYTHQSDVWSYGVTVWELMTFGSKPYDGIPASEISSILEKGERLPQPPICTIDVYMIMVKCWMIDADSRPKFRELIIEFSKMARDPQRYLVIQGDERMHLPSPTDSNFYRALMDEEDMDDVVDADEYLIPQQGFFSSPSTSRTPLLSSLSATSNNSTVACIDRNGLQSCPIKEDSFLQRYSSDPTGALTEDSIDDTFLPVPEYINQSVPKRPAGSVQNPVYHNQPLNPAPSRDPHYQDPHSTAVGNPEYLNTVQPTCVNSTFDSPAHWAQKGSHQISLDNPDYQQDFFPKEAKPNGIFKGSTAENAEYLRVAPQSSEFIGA

As to `COc1c(F)cccc1Nc1c(-c2ccncc2F)[nH]c2c1C(=O)NC[C@@H]2CC1COCCO1` (stereo in doubt) [Compound 525, (7S)-7-[(2R)-1,4-dioxan-2-ylmethyl]-3-[(3-fluoro-2-methoxyphenyl)amino]-2-(3-fluoropyridin-4-yl)-1H,5H,6H,7H-pyrrolo[3,2-c]pyridin-4-one], the pIC50 (at EGFR L858R (Ba/F3 cells) [1]; in assay [2]; in assay [3]; on EGFR L858R (Ba/F3 cells) [4]; in [5]; in assay [6]) was above 7.00 in each case. Besides, the pIC50 on EGFR WT (Ba/F3 cells) was 6.00 to 7.00; in assay [7] it was above 7.00; in [8] it was above 7.00; in assay [9], above 7.00; in [10], above 7.00; in assay [11], above 7.00. Also, the pIC50 (in assay [12]; in assay [13]; at EGFR (CUTO14 cells)) was above 7.00 throughout.
With `COCC[C@@H]1CNC(=O)c2c1[nH]c(-c1ccncc1F)c2Nc1cccc(F)c1OC` [421b], the pIC50 (at EGFR L858R (Ba/F3 cells) [1]; in [2]; in assay [3]; against EGFR L858R (Ba/F3 cells) [4]; in [5]; in assay [6]) was above 7.00 each time. Moreover, the pIC50 on EGFR WT (Ba/F3 cells) is 6.00 to 7.00; in assay [7], above 7.00; in assay [8], above 7.00; in assay [9] it was above 7.00; in assay [10], above 7.00; in [11], above 7.00. Further, the pIC50 (in assay [12]; in assay [13]; against EGFR (CUTO14 cells)) was above 7.00 each time.
For `COCC[C@@H]1CNC(=O)c2c1[nH]c(-c1ccncn1)c2Nc1cccc(Cl)c1OC` [445a], the pIC50 (at EGFR L858R (Ba/F3 cells) [1]; in [2]; in assay [3]; on EGFR L858R (Ba/F3 cells) [4]; in assay [5]; in assay [6]) was above 7.00 throughout. Further, the pIC50 was 6.00 to 7.00 at EGFR WT (Ba/F3 cells); above 7.00 in assay [7]; above 7.00 in assay [8]; above 7.00 in [9]; above 7.00 in assay [10]; above 7.00 in assay [11]. Besides, the pIC50 (in [12]; in [13]; on EGFR (CUTO14 cells)) was above 7.00 in each case.
`COCC[C@H]1CNC(=O)c2c1[nH]c(-c1ccnc(C)n1)c2Nc1cccc(Cl)c1OC` [463b]: the pIC50 (on EGFR L858R (Ba/F3 cells) [1]; in assay [2]; in assay [3]; on EGFR L858R (Ba/F3 cells) [4]; in assay [5]; in assay [6]) was above 7.00 throughout. Further, the pIC50 on EGFR WT (Ba/F3 cells) is 6.00 to 7.00; in [7], above 7.00; in [8], above 7.00; in [9], above 7.00; in assay [10], above 7.00; in assay [11], above 7.00. In addition, the pIC50 (in assay [12]; in [13]; at EGFR (CUTO14 cells)) was above 7.00 each time.
For `COc1c(Cl)cccc1Nc1c(-c2ccncc2F)[nH]c2c1C(=O)NC[C@@]21CCN(CC(F)(F)F)C1` [compound 817], the pIC50 (at EGFR L858R (Ba/F3 cells) [1]; in [2]; in [3]; at EGFR L858R (Ba/F3 cells) [4]; in assay [5]; in assay [6]) was above 7.00 throughout. Moreover, the pIC50 at EGFR WT (Ba/F3 cells) was 6.00 to 7.00; in [7], above 7.00; in assay [8], above 7.00; in assay [9] it was above 7.00; in [10] it was above 7.00; in assay [11] it was above 7.00. Moreover, the pIC50 (in assay [12]; in [13]; against EGFR (CUTO14 cells)) was above 7.00 throughout.
